Laboratory results published in patent publication US11242350B2, “Spirocyclic ROR-gamma modulators” (Escalier Biosciences B.V., priority 2018, dated 2022).

Target: RORγt (Homo sapiens (Human), UniProt P51449)
Test: Gal4 ligand binding assay (RORγt Gal fusion luciferase reporter assay in HEK293T cells)
Assay type: cell-based
Settings: RORγt inverse agonists in RORγt Gal fusion assay
Description: The N-terminal DNA binding domains (DBD) of the native RORγ and RORγt receptors have been substituted with that of the yeast GAL4-DBD and stably transfected in HEK293T cells that also stably express luciferase under the regulation by upstream activation sequence of yeast Gal4. These cells constitutively express high level RORγ activity due to binding of endogenous co-factors. Both agonist and inverse agonist activity can be detected. The assay was performed according to kit manufacturer's instructions as follows. 10 mM compound stocks were diluted serially 1:3 with DMSO and further diluted with provided media to generate 10 titration points from 60 μM to 3 nM. These treatment conditions were added to the plates as 2× media in 100 μL volume. Each plate includes a positive control with 10 titration points as well as 6 negative control wells with vehicle only, with final DMSO concentration of 0.2%. RORγ reporter cells were rapidly thawed and added to the plates in 100 μL volume. The plates were incubated for 24 h in a 37° C. humidified 5% CO2 incubator. Media was removed before the addition of room temperature luciferous detection substrate. After 5 minute incubation, relative light units (RLUs) were quantified using a plate reading luminometer. Data was normalized to […] with only 0.2%0DMSO. Before establishing internal controls, ursolic acid was used as control.

RORγt, sequence (P51449 269-508): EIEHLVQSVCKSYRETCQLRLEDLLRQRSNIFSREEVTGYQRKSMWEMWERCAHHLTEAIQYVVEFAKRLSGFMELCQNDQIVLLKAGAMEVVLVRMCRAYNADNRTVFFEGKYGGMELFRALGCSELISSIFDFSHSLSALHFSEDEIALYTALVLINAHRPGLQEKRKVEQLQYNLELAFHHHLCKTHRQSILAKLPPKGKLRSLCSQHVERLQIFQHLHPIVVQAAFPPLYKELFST

`CS(=O)(=O)N1CC2(CN(Cc3cc(F)c(-c4ccc(C(O)(C(F)(F)F)C(F)(F)F)cc4F)c(C4CC4)c3F)C2)C1` [Example 91, 2-(2′-cyclopropyl-2,3′,6′-trifluoro-4′-((6-(methylsulfonyl)-2,6-diazaspiro[3.3]heptan-2-yl)methyl)-[1,1′-biphenyl]-4-yl)-1,1,1,3,3,3-hexafluoropropan-2-ol] and `CCc1cc(C(O)(C(F)(F)F)C(F)(F)F)ccc1-c1c(F)cc(CN2CC3(C2)CN(S(C)(=O)=O)C3)c(F)c1C(C)C` [Example 85, 2-(2-ethyl-3′,6′-difluoro-2′-isopropyl-4′-((6-(methylsulfonyl)-2,6-diazaspiro[3.3]heptan-2-yl)methyl)-[1,1′-biphenyl]-4-yl)-1,1,1,3,3,3-hexafluoropropan-2-ol] cannot be ordered by IC50: less than 50 nM for the first, less than 50 nM for the second.

`CC(C)c1cc(CN2CC3(C2)CN(S(C)(=O)=O)C3)c(F)cc1-c1ccc(C(O)(C(F)(F)F)C(F)(F)F)cc1Cl` [Example 81, 2-(2-chloro-5′-fluoro-2′-isopropyl-4′-((6-(methylsulfonyl)-2,6-diazaspiro[3.3]heptan-2-yl)methyl)-[1,1′-biphenyl]-4-yl)-1,1,1,3,3,3-hexafluoropropan-2-ol] and `CC(C)c1cc(CN2CC3(C2)CN(S(C)(=O)=O)C3)c(F)c(F)c1-c1ccc(C(O)(C(F)(F)F)C(F)(F)F)cc1` [Example 14, 2-(2′,3′-difluoro-6′-isopropyl-4′-((6-(methylsulfonyl)-2,6-diazaspiro[3.3]heptan-2-yl)methyl)-[1,1′-biphenyl]-4-yl)-1,1,1,3,3,3-hexafluoropropan-2-ol] cannot be ordered by IC50: less than 50 nM for the first, less than 50 nM for the second.

`CCc1cc(CN2CCC3(C2)CS(=O)(=O)C3)ccc1-c1ccc(C(O)(C(F)(F)F)C(F)(F)F)cc1C` [Example 16, 6-((2-ethyl-4′-(1,1,1,3,3,3-hexafluoro-2-hydroxypropan-2-yl)-2′-methyl-[1,1′-biphenyl]-4-yl)methyl)-2-thia-6-azaspiro[3.4]octane 2,2-dioxide] and `Cc1cc(C(O)(C(F)(F)F)C(F)(F)F)ccc1-c1ccc(CN2CCC3(C2)CS(=O)(=O)C3)cc1C(C)C` [Example 11, 6-((4′-(1,1,1,3,3,3-hexafluoro-2-hydroxypropan-2-yl)-2-isopropyl-2′-methyl-[1,1′-biphenyl]-4-yl)methyl)-2-thia-6-azaspiro[3.4]octane 2,2-dioxide] cannot be ordered by IC50: less than 50 nM for the first, less than 50 nM for the second.

First: CCc1cc(CN2CC3(C2)CN(S(C)(=O)=O)C3)ncc1-c1ccc(C(O)(C(F)(F)F)C(F)(F)F)cc1C [Example 64, 2-(4-(4-ethyl-6-((6-(methylsulfonyl)-2,6-diazaspiro[3.3]heptan-2-yl)methyl)pyridin-3-yl)-3-methylphenyl)-1,1,1,3,3,3-hexafluoropropan-2-ol]
Second: CCc1nc(CN2CC3(C2)CN(S(C)(=O)=O)C3)ccc1-c1ccc(C(O)(C(F)(F)F)C(F)(F)F)cc1C [Example 73, 2-(4-(2-ethyl-6-((6-(methylsulfonyl)-2,6-diazaspiro[3.3]heptan-2-yl)methyl)pyridin-3-yl)-3-methylphenyl)-1,1,1,3,3,3-hexafluoropropan-2-ol]
The IC50 of the first is lower: less than 50 nM for the first, greater than 250 nM for the second.

`CS(=O)(=O)N1CC2(CN(Cc3ccc(-c4ccc(C(O)(C(F)(F)F)C(F)(F)F)cc4)cc3O)C2)C1` [Example 61, 4′-(1,1,1,3,3,3-hexafluoro-2-hydroxypropan-2-yl)-4-((6-(methylsulfonyl)-2,6-diazaspiro[3.3]heptan-2-yl)methyl)-[1,1′-biphenyl]-3-ol] and `Cc1cc(CN2CC3(C2)CN(S(C)(=O)=O)C3)ccc1-c1ccc(C(O)(C(F)(F)F)C(F)(F)F)cc1` [Example 50, 1,1,1,3,3,3-hexafluoro-2-(2′-methyl-4′-((6-(methylsulfonyl)-2,6-diazaspiro[3.3]heptan-2-yl)methyl)-[1,1′-biphenyl]-4-yl)propan-2-ol] fall in the same range of IC50: 50 to 250 nM for the first, 50 to 250 nM for the second.

Compared with `CCc1cc(CN2CC(CNS(C)(=O)=O)C2)ccc1-c1ccc(C(O)(C(F)(F)F)C(F)(F)F)cc1` [Example 32, N-((1-((2-ethyl-4′-(1,1,1,3,3,3-hexafluoro-2-hydroxypropan-2-yl)-[1,1′-biphenyl]-4-yl)methyl)azetidin-3-yl)methyl)methanesulfonamide], `CCc1cc(CN2CCC(CS(C)(=O)=O)CC2)ccc1-c1ccc(C(O)(C(F)(F)F)C(F)(F)F)cc1` [Example 9, 2-(2′-ethyl-4′-((4-((methylsulfonyl)methyl)piperidin-1-yl)methyl)-[1,1′-biphenyl]-4-yl)-1,1,1,3,3,3-hexafluoropropan-2-ol] is lower in IC50: greater than 250 nM for the first, 50 to 250 nM for the second.

First: CCc1cc(CN2CCC3(CNC(=O)C3)C2)ccc1-c1ccc(C(O)(C(F)(F)F)C(F)(F)F)cc1 (centres unmarked) [Example 54, 7-((2-ethyl-4′-(1,1,1,3,3,3-hexafluoro-2-hydroxypropan-2-yl)-[1,1′-biphenyl]-4-yl)methyl)-2,7-diazaspiro[4.4]nonan-3-one]
Second: CCc1cc(CN2CC3(CSC3)C2)ccc1-c1ccc(C(O)(C(F)(F)F)C(F)(F)F)cc1 [Example 28, 2-(4′-((2-thia-6-azaspiro[3.3]heptan-6-yl)methyl)-2′-ethyl-[1,1′-biphenyl]-4-yl)-1,1,1,3,3,3-hexafluoropropan-2-ol]
The IC50 of the first is lower: 50 to 250 nM for the first, greater than 250 nM for the second.

First: CCc1cc(CN2CC3(C2)CN(S(C)(=O)=O)C3)cnc1-c1ccc(C(O)(C(F)(F)F)C(F)(F)F)cc1 [Example 52, 2-(4-(3-ethyl-5-((6-(methylsulfonyl)-2,6-diazaspiro[3.3]heptan-2-yl)methyl)pyridin-2-yl)phenyl)-1,1,1,3,3,3-hexafluoropropan-2-ol]
Second: CS(=O)(=O)N1CC2(CN(Cc3ccc(-c4ccc(C(O)(C(F)(F)F)C(F)(F)F)cc4)c(Cl)c3)C2)C1 [Example 47, 2-(2′-chloro-4′-((6-(methylsulfonyl)-2,6-diazaspiro[3.3]heptan-2-yl)methyl)-[1,1′-biphenyl]-4-yl)-1,1,1,3,3,3-hexafluoropropan-2-ol]
The IC50 of the first is lower: 50 to 250 nM for the first, greater than 250 nM for the second. The first is the more potent here.

First: Cc1cc(C(O)(C(F)(F)F)C(F)(F)F)ccc1-c1ccc(CN2CC3(C2)CS(=O)(=O)C3)cc1C(C)C [Example 12, 6-((4′-(1,1,1,3,3,3-hexafluoro-2-hydroxypropan-2-yl)-2-isopropyl-2′-methyl-[1,1′-biphenyl]-4-yl)methyl)-2-thia-6-azaspiro[3.3]heptane 2,2-dioxide]
Second: COc1cc(CN2CC3(C2)CN(S(C)(=O)=O)C3)ccc1-c1ccc(C(O)(C(F)(F)F)C(F)(F)F)cc1C [Example 57, 1,1,1,3,3,3-hexafluoro-2-(2′-methoxy-2-methyl-4′-((6-(methylsulfonyl)-2,6-diazaspiro[3.3]heptan-2-yl)methyl)-[1,1′-biphenyl]-4-yl)propan-2-ol]
The IC50 of the first is higher: 50 to 250 nM for the first, less than 50 nM for the second.

`CS(=O)(=O)N1CC2(CN(Cc3ccc(-c4ccc(C(O)(C(F)(F)F)C(F)(F)F)cc4)c(C(F)(F)F)c3)C2)C1` [Example 46, 1,1,1,3,3,3-hexafluoro-2-(4′-((6-(methylsulfonyl)-2,6-diazaspiro[3.3]heptan-2-yl)methyl)-2′-(trifluoromethyl)-[1,1′-biphenyl]-4-yl)propan-2-ol] and `CS(=O)(=O)N1CC2(CN(Cc3ccc(-c4ccc(C(O)(C(F)(F)F)C(F)(F)F)cc4)c(Br)c3)C2)C1` [Example 45, 2-(2′-bromo-4′-((6-(methylsulfonyl)-2,6-diazaspiro[3.3]heptan-2-yl)methyl)-[1,1′-biphenyl]-4-yl)-1,1,1,3,3,3-hexafluoropropan-2-ol] fall in the same range of IC50: 50 to 250 nM for the first, 50 to 250 nM for the second.

`CCc1cc(CN2CC3(CCCN(S(C)(=O)=O)C3)C2)ccc1-c1ccc(C(O)(C(F)(F)F)C(F)(F)F)cc1` [Example 19, 2-(2′-ethyl-4′-((6-(methylsulfonyl)-2,6-diazaspiro[3.5]nonan-2-yl)methyl)-[1,1′-biphenyl]-4-yl)-1,1,1,3,3,3-hexafluoropropan-2-ol] and `CCc1cc(CN2CC3(CCN(S(C)(=O)=O)CC3)C2)ccc1-c1ccc(C(O)(C(F)(F)F)C(F)(F)F)cc1` [Example 33, 2-(2′-ethyl-4′-((7-(methylsulfonyl)-2,7-diazaspiro[3.5]nonan-2-yl)methyl)-[1,1′-biphenyl]-4-yl)-1,1,1,3,3,3-hexafluoropropan-2-ol] fall in the same range of IC50: 50 to 250 nM for the first, 50 to 250 nM for the second.

`CCc1cc(CN2CC3(C2)CN(C(=O)OC(C)(C)C)C3)ccc1-c1ccc(C(O)(C(F)(F)F)C(F)(F)F)cc1` [Example 1, tert-butyl 6-((2-ethyl-4′-(1,1,1,3,3,3-hexafluoro-2-hydroxypropan-2-yl)-[1,1′-biphenyl]-4-yl)methyl)-2,6-diazaspiro[3.3]heptane-2-carboxylate] and `CCc1cc(CN2CC3(C2)C[S+]([O-])C3)ccc1-c1ccc(C(O)(C(F)(F)F)C(F)(F)F)cc1` [Example 27, 6-((2-ethyl-4′-(1,1,1,3,3,3-hexafluoro-2-hydroxypropan-2-yl)-[1,1′-biphenyl]-4-yl)methyl)-2-thia-6-azaspiro[3.3]heptane 2-oxide] fall in the same range of IC50: 50 to 250 nM for the first, 50 to 250 nM for the second.

First: Cc1cc(C(O)(C(F)(F)F)C(F)(F)F)ccc1-c1cccc(N2CC3(C2)CN(S(C)(=O)=O)C3)c1C [Example 66, 2-(2,2′-dimethyl-3′-(6-(methylsulfonyl)-2,6-diazaspiro[3.3]heptan-2-yl)-[1,1′-biphenyl]-4-yl)-1,1,1,3,3,3-hexafluoropropan-2-ol]
Second: C=C(C)c1cc(CN2CC3(C2)CN(S(C)(=O)=O)C3)ccc1-c1ccc(C(O)(C(F)(F)F)C(F)(F)F)cc1 [Example 44, 1,1,1,3,3,3-hexafluoro-2-(4′-((6-(methylsulfonyl)-2,6-diazaspiro[3.3]heptan-2-yl)methyl)-2′-(prop-1-en-2-yl)-[1,1′-biphenyl]-4-yl)propan-2-ol]
The IC50 of the first is higher: 50 to 250 nM for the first, less than 50 nM for the second. The second is the more potent here.
